What was measured:
HIV-1 = test: C8166 HIV-1 Luciferase Assay (EC50); type: cell-based; details: Human immunodeficiency virus 1, C8166, 72 h
Description: C8166 HIV-1 Luciferase Assay (Ec50)
The assay used to measure inhibition of HIV replication is as described in WO 2004/050643, pages 73-75, incorporated herein by reference, with the following modifications:
Serial dilutions of HIV-1 inhibitors are prepared in complete media from DMSO stock solutions. Eleven serial dilutions of desired concentration are prepared in a 1 mL deep well titer plate (96 wells). The 12th well contains complete media with no inhibitor and serves as the positive control. All samples contain the same concentration of DMSO (<0.1% DMSO). Inhibitor is added, to triplicate wells, of a 96 well tissue culture treated clear view black microtiter plate (Corning Costar catalogue #3904). The total volume per well is 200 μL of media containing the cells and inhibitor. The last row is reserved for uninfected C8166 LTRIuc cells to serve as the background blank control and the first row is media alone.
Count C8166 LTRIuc cells and place in a minimal volume of complete RPMI 1640 in a tissue culture flask (ex. 30×10^6 cells in 10 mL media/25 cm^2 flask). Infect cells with HIV-1 at a moi of 0.005. Incubate cells for 1.5 h at 37° C. on a rotating rack in a 5% CO2 incubator. Resuspend cells in complete RPMI to give a final concentration of 25,000-cells/well. Add cells to wells of 96 well microtiter plate containing inhibitors. Add 25,000 uninfected C8166-LTRIuc cells/well in 200 μL complete RPMI to last row for background control. Incubate cells at 37° C. in 5% CO2 incubator for 3 days.
50 μL Steady Glo (luciferase substrate T112=5 hours Promega catalogue # E2520) is added to each well of the 96 well plate. The relative light units (RLU) of luciferase are determined using a luminescence plate reader. The calculated % inhibition values are used to determine EC50, slope factor (n) and maximum inhibition (Imax).

[1] = Caco-2 Permeability Assay; type: in vitro ADME; details: human, apparent permeability A to B, compound at 10 μM, apical buffer pH 6.0, basolateral buffer pH 7.4, read-out: Papp (cm/sec, *10^−6)
Description: Caco-2 Permeability Assay Caco-2 cells are purchased from Cell Culture Services as frozen instant cells at a concentration of 1*10^7 cells/vial. DMEM+glutamax-I culture media is purchased from Gibco (10569). Fetal bovine serum (FBS) is purchased from HyClone (SH30396.03). Pennicilin/Streptomycin antibiotics are purchased from Gibco (15140). MEM non-essential amino acids are purchased from Gibco (11140). Hank's balanced salt solution (HBSS) is purchased from Gibco (14025). Bovine serum albumin (BSA) is purchased from Sigma-Aldrich (A7906). MES low moisture is purchased from Sigma-Aldrich (M3671). HEPES is purchased from Sigma-Aldrich (H3375). Dimethyl Sulfoxide (DMSO) is purchased from EMD (MX1457-6). Complete DMEM media is prepared by adding 1 L of FBS, 100 mL of pen/strep and 110 mL of MEM non essential amino acids to 10 L of DMEM+glutamax-I. […] Caco-2 cells are seeded on HTS transwell 24-well plates purchased from Corning (3397). These polycarbonate membrane plates have a diameter of […] and pore size of 0.4 μm. The Caco-2 cells vial is thawed in a 37° C. water bath until only a small ice pellet is left. The vial is then transferred to the laminar flow hood and its exterior is extensively washed with 70% ethanol. The total content of the vial (2 mL) is transferred into a 50 mL tube containing 38 mL of complete DMEM. […] The seeding is done by the Hamilton star robotic station which is controlled with the Venus program. Each well will receive 600 μL of complete DMEM on its basolateral side and 200 μL of cells on its apical side. Each well receives 50 000 cells. The 24-well plates are then returned to an automated Liconic STX110 incubator set at 37° C., 5% CO2 and 100% humidity. The culture media for the cells is changed every two days except on weekends. These cells are maintained for a period of two weeks prior to the running of the permeability assay. Permeability assays are usually performed between day 15 and 18 after the initial seeding. […] Controls for the assay are mannitol for tight junction determination and Digoxin for efflux transporter (p-glycoprotein) expression. On the day of the assay, each compound is diluted to 10 μM in the buffer (apical for A to B). 6 μl of the 5 mM DMSO stock is added to 3 mL of the buffer in a 24-well 10 mL deep plate covered with a lid. The plate containing all the diluted compounds is spun for 10 min at 3000 rpm in a Rotanta 46 RSC centrifuge from Hettich to remove unsoluble compound. This dilution is used to add at the start of the incubation. Each compound is tested in duplicate. On the day of the assay, the culture media of the 24-well plate is removed and replaced with warm HBSS. The HBSS is then also removed and the Apical and Basolatral buffer are added to their respective side of the transwells. These steps are performed by the Hamilton Star robotic station. The plate is then placed in a 37° C. incubator and is left to equilibrate for 30 min. After 30 min of incubation a background sample (25 μL from each well) is taken from the receiver side (Basolateral for A to B), and replenished with warm buffer. These samples and all others afterwards are kept in a 96-well 1 mL plate. To start the assay, the donor compartment (apical for A to B) is emptied and replaced with new buffer containing the compound at 10 μM. Once the compounds are added, the plate is returned to the 37° C. incubator and the timer is started. In order to determine how much compound is actually added to each well, a 50 μL sample is taken from each compound dilution, this sample is refered to as the load. These steps and the following are performed by the Tecan Freedom EVO robotic station controlled via the Gemini software. For A-to-B Assay: Samples (190 μL) are taken from each basolateral (receiver) chamber at time points 0, 60, 120 and 180 min or at time points 0, 30, 60 and 90 min. From the 190 μL taken, 50 μL is transferred to the receiving plate and 140 μL is discarded.

C[C@@H]1C[C@H](n2c(=O)nc(-c3cnn(C)c3)c3oc4ccc(-c5cnn(C)c5)cc4c32)C[C@H](C)O1 [Compound 1039]
EC50 (HIV-1): 36 nM | Papp A→B at 10 μM [1]: 16.8 ×10⁻⁶ cm/s

CC[C@@H]1C[C@H](n2c(=O)nc(-c3cnn(C)c3)c3oc4cnc(-c5cccnc5)cc4c32)CCO1 [Compound 1086]
EC50 (HIV-1): 18 nM | Papp A→B at 10 μM [1]: 22.5 ×10⁻⁶ cm/s

Cn1cc(-c2ccc3oc4c(-c5ccc(N6CCOCC6)nc5)nc(=O)n(CCC5CCCO5)c4c3c2)cn1 (centres unmarked) [Compound 1026]
EC50 (HIV-1): 27.9 nM | Papp A→B at 10 μM [1]: 7.4 ×10⁻⁶ cm/s

CC[C@H]1C[C@@H](n2c(=O)nc(-c3cnn(C)c3)c3oc4ncc(-c5cccnc5)cc4c32)CCO1 [Compound 1083]
EC50 (HIV-1): 41 nM | Papp A→B at 10 μM [1]: 12.5 ×10⁻⁶ cm/s

C[C@@H]1C[C@H](n2c(=O)nc(-c3cnn(C)c3)c3oc4ccc(-c5cnn(C)c5)nc4c32)C[C@H](C)O1 [Compound 1008]
EC50 (HIV-1): 73.9 nM | Papp A→B at 10 μM [1]: 18.1 ×10⁻⁶ cm/s

Cn1cc(-c2cc(F)c3oc4c(-c5ccc(N6CCOCC6)nc5)nc(=O)n(CCC5CCCO5)c4c3c2)cn1 (centres unmarked) [Compound 1031]
EC50 (HIV-1): 14 nM | Papp A→B at 10 μM [1]: 6.4 ×10⁻⁶ cm/s

CNc1ccc(-c2nc(=O)n(CCC3CCCO3)c3c2oc2ccc(-c4cnn(C(C)C)c4)cc23)cn1 (centres unmarked) [Compound 1025]
EC50 (HIV-1): 350 nM | Papp A→B at 10 μM [1]: 8.1 ×10⁻⁶ cm/s

C[C@@H]1C[C@H](n2c(=O)nc(-c3cnn(C)c3)c3oc4cc(C#N)c(-c5cnn(C)c5)nc4c32)C[C@H](C)O1 [Compound 1016]
EC50 (HIV-1): 89 nM | Papp A→B at 10 μM [1]: 15.9 ×10⁻⁶ cm/s

C[C@@H]1C[C@H](n2c(=O)nc(-c3cnn(C)c3)c3oc4cnc(-c5cnn(C)c5)cc4c32)C[C@H](C)O1 [Compound 1084]
EC50 (HIV-1): 120 nM | Papp A→B at 10 μM [1]: 20.5 ×10⁻⁶ cm/s

CC[C@H]1C[C@@H](n2c(=O)nc(-c3cnn(C)c3)c3oc4cnc(-c5cnn(C)c5)cc4c32)CCCO1 [Compound 1087]
EC50 (HIV-1): 9.7 nM | Papp A→B at 10 μM [1]: 23.1 ×10⁻⁶ cm/s

CC[C@H]1C[C@@H](n2c(=O)nc(-c3cnn(C)c3)c3oc4ccc(-c5cncnc5)nc4c32)CCO1 [Compound 1004]
EC50 (HIV-1): 21 nM | Papp A→B at 10 μM [1]: 14.1 ×10⁻⁶ cm/s

CC[C@H]1C[C@@H](n2c(=O)nc(-c3cnn(C)c3)c3oc4cc(F)c(-c5cnn(C)c5)cc4c32)CCO1 [Compound 1042]
EC50 (HIV-1): 6.9 nM | Papp A→B at 10 μM [1]: 23.4 ×10⁻⁶ cm/s

CC[C@H]1C[C@@H](n2c(=O)nc(-c3cnn(C)c3)c3oc4cnc(-c5cnc(C)o5)cc4c32)CCO1 [Compound 1088]
EC50 (HIV-1): 36.2 nM | Papp A→B at 10 μM [1]: 22.9 ×10⁻⁶ cm/s

CC[C@H]1C[C@@H](n2c(=O)nc(-c3cnn(C)c3)c3oc4ccc(-c5ccn(C)n5)nc4c32)CCO1 [Compound 1003]
EC50 (HIV-1): 6.4 nM | Papp A→B at 10 μM [1]: 22.2 ×10⁻⁶ cm/s

CC[C@H]1C[C@@H](n2c(=O)nc(-c3cnn(C)c3)c3oc4ccc(-n5cncn5)nc4c32)CCO1 [Compound 1013]
EC50 (HIV-1): 98 nM | Papp A→B at 10 μM [1]: 16.8 ×10⁻⁶ cm/s

CC[C@H]1C[C@@H](n2c(=O)nc(-c3cnn(C)c3)c3oc4cc(Cl)c(-c5cnn(C)c5)nc4c32)CCO1 [Compound 1022]
EC50 (HIV-1): 3.2 nM | Papp A→B at 10 μM [1]: 17.2 ×10⁻⁶ cm/s

Cn1cc(-c2cc3c(cc2F)oc2c(-c4ccc(N5CCC5)nc4)nc(=O)n(CCC4CCCO4)c23)cn1 (centres unmarked) [Compound 1033]
EC50 (HIV-1): 7.6 nM | Papp A→B at 10 μM [1]: 6.9 ×10⁻⁶ cm/s

CNc1ccc(-c2nc(=O)n(CCC3CCCO3)c3c2oc2c(F)cc(-c4cnco4)cc23)cn1 (centres unmarked) [Compound 1029]
EC50 (HIV-1): 19 nM | Papp A→B at 10 μM [1]: 16.1 ×10⁻⁶ cm/s

COc1cc2oc3c(-c4cnn(C)c4)nc(=O)n(CC[C@@H]4CCCO4)c3c2cc1-c1cnn(C)c1 [Compound 1056]
EC50 (HIV-1): 8.3 nM | Papp A→B at 10 μM [1]: 6.7 ×10⁻⁶ cm/s

CNc1ccc(-c2nc(=O)n(CCC3CCCO3)c3c2oc2ccc(-c4cncs4)cc23)cn1 (centres unmarked) [Compound 1028]
EC50 (HIV-1): 50 nM | Papp A→B at 10 μM [1]: 19.9 ×10⁻⁶ cm/s

CC[C@H]1C[C@@H](n2c(=O)nc(-c3cnn(C)c3)c3oc4cnc(-c5cnn(CCOC)c5)cc4c32)CCO1 [Compound 1085]
EC50 (HIV-1): 120 nM | Papp A→B at 10 μM [1]: 19.2 ×10⁻⁶ cm/s

CC[C@H]1C[C@@H](n2c(=O)nc(-c3cnn(C)c3)c3oc4cc(C#N)c(-c5cnn(C)c5)nc4c32)C[C@@H](C)O1 [Compound 1017]
EC50 (HIV-1): 22 nM | Papp A→B at 10 μM [1]: 23.6 ×10⁻⁶ cm/s

CNc1ccc(-c2nc(=O)n(CCC3CCCO3)c3c2oc2ccc(-c4cnco4)cc23)cn1 (centres unmarked) [Compound 1027]
EC50 (HIV-1): 54 nM | Papp A→B at 10 μM [1]: 12.4 ×10⁻⁶ cm/s

CC[C@H]1C[C@@H](n2c(=O)nc(-c3cnn(C)c3)c3oc4cc(OC)c(-c5cnn(C)c5)cc4c32)CCO1 [Compound 1055]
EC50 (HIV-1): 3.6 nM | Papp A→B at 10 μM [1]: 8.42 ×10⁻⁶ cm/s

CC[C@H]1C[C@@H](n2c(=O)nc(-c3ccc(OC)nc3)c3oc4ccc(-c5cn(C)cn5)nc4c32)CCO1 [Compound 1100]
EC50 (HIV-1): 6.2 nM | Papp A→B at 10 μM [1]: 29.3 ×10⁻⁶ cm/s

CC[C@H]1C[C@@H](n2c(=O)nc(-c3cnn(C)c3)c3oc4cc(C#N)c(-c5cccnc5)cc4c32)CCO1 [Compound 1051]
EC50 (HIV-1): 220 nM | Papp A→B at 10 μM [1]: 15.4 ×10⁻⁶ cm/s

CN(C)c1ccc(-c2nc(=O)n(CCC3CCCO3)c3c2oc2ccc(-c4cncs4)cc23)cn1 (centres unmarked) [Compound 1035]
EC50 (HIV-1): 9.4 nM | Papp A→B at 10 μM [1]: 11.5 ×10⁻⁶ cm/s

CC[C@H]1C[C@@H](n2c(=O)nc(-c3cnn(C)c3)c3oc4cc(C#N)c(-c5cnn(C)c5)cc4c32)CCO1 [Compound 1049]
EC50 (HIV-1): 15.1 nM

CC[C@H]1C[C@@H](n2c(=O)nc(-c3ccc(NC)nc3)c3oc4ncc(-c5cnn(C)c5)cc4c32)CCO1 [Compound 1069]
EC50 (HIV-1): 7.8 nM

Source: US9399645B2, “Inhibitors of HIV replication” (Boehringer Ingelheim International GmbH, priority 2011, dated 2016)
